Where a name gives a salt, the structure may show the parent alone. Read-outs that look alike come from different tables or passages of the source.
Assays:
Experiment in all cases: biochemical
[1] = biological target: T1, MMP-13 (Homo sapiens, UniProt P45452)
T1 construct: made in house; host or cells: baculovirus / insect cells
Summary of the method: (§1)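 Assay buffer 100 mM Tris-HCl, 100 mM NaCl, 10 mM CaCl2, pH 7.5. Activated MMP + inhibitor, 5 min RT; then methoxycoumarin peptide substrate, 4 μM final. Readout fluorescence; IC50 calculated.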

[2] = biological target: T2, MMP-2 (Homo sapiens, UniProt P08253)
T2 construct: made in house; provided by Dr. Gregory Goldberg, Washington University
T2 sequence (P08253 110-660): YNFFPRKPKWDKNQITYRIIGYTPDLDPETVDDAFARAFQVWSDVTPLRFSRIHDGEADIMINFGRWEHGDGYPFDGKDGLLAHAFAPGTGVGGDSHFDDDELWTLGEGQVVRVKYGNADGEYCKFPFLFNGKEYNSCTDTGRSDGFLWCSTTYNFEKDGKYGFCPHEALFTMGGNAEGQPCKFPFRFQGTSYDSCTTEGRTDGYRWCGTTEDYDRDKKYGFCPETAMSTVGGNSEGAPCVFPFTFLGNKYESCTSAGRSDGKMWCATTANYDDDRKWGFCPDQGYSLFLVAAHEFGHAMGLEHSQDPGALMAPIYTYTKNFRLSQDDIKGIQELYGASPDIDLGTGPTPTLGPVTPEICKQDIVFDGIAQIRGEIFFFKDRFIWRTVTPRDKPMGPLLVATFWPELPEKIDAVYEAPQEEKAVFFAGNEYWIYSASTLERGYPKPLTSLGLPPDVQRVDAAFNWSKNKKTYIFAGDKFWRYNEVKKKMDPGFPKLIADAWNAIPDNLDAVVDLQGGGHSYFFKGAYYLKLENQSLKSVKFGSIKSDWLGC
Summary of the method: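 APMA- or trypsin-activated enzymes were preincubated with inhibitor for 5 min at room temperature, then the fluorogenic substrate MCA-Pro-Leu-Gly-Leu-Dpa-Ala-Arg-NH2 was added to a final 4 μM.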

[3] = biological target: T3, MMP-1 (Homo sapiens, UniProt P03956); conditions: read-out: MMP-1 IC50
T3 construct: made in house; host or cells: transfected HT-1080 cells (provided by Dr. Harold Welgus, Washington University)
T3 sequence (P03956 100-469): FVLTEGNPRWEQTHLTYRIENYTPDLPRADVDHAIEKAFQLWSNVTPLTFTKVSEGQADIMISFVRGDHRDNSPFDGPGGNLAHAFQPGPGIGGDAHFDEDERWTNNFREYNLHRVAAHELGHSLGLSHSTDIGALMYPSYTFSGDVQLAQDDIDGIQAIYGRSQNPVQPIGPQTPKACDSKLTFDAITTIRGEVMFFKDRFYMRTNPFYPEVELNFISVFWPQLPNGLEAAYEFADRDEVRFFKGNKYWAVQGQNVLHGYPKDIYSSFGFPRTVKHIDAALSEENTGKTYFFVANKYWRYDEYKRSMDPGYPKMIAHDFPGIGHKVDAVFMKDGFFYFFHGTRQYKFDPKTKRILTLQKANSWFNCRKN
Summary of the method: as §1

[4] = recombinant human MMP-13, MCA peptide substrate 4 μM, pH 7.5, room temperature, read-out: MMP-13 IC50
[5] = recombinant human MMP-2, MCA peptide substrate 4 μM, pH 7.5, room temperature, read-out: MMP-2 IC50
[6] = recombinant human MMP-1, MCA peptide substrate 4 μM, pH 7.5, room temperature

| IC50 [1, 4] | IC50 [2, 5] | IC50 [3, 6] | Compound | IC50 ([1]; read-out: MMP-13 IC50) | IC50 ([2]; read-out: MMP-2 IC50) | IC50 [3] | IC50 ([1]; MMP-13 IC50 (nM)) | IC50 ([2]; MMP-2 IC50 (nM)) |
| --- | --- | --- | --- | --- | --- | --- | --- | --- |
| 13.9 nM | 260 nM | > 10 µM | C=CCOC1CCN(c2ccc(S(=O)(=O)C3(C(=O)NO)CCOCC3)cc2)CC1 [Example 635] |  |  |  |  |  |
| 20 nM | 2500 nM | > 10 µM | O=C(NO)C1(S(=O)(=O)c2ccc(N3CCC(OCc4ccc(COCC5CCCCC5)cc4)CC3)cc2)CCOCC1 [Example 604] |  |  |  |  |  |
| 2.9 nM | 220 nM | > 10 µM | O=C(NO)C1(S(=O)(=O)c2ccc(N3CCC(OCc4ccc(COCC(F)(F)F)cc4)CC3)cc2)CCOCC1 [Example 607] |  |  |  |  |  |
| 2.7 nM | 100 nM | > 10 µM | O=C(NO)C1(S(=O)(=O)c2ccc(N3CCC(OCc4ccc(Br)cc4)CC3)cc2)CCOCC1 [Example 579] |  |  |  |  |  |
| 0.9 nM | 0.3 nM | > 10 µM | COCCN(CCOC)CC(=O)N1CCC(C(=O)NO)(S(=O)(=O)c2ccc(Oc3ccc(C(F)(F)F)cc3)cc2)CC1 [Example 327] |  |  |  |  |  |
| 0.5 nM | 0.2 nM | > 10 µM | O=C(CN1CCOCC1)N1CCC(C(=O)NO)(S(=O)(=O)c2ccc(Oc3ccc(C(F)(F)F)cc3)cc2)CC1 [Example 319] |  |  |  |  |  |
| 2700 nM | 6400 nM | > 10 µM | COC1CCCN(c2ccc(S(=O)(=O)C3(C(=O)NO)CCOCC3)cc2)C1 (stereo not drawn) [Example 524] |  |  |  |  |  |
| 27.8 nM | 225 nM | > 10 µM | O=C(NO)C1(S(=O)(=O)c2ccc(N3CCC(Oc4cccc(C(F)(F)F)c4)CC3)cc2)CCOCC1 [Example 620] |  |  |  |  |  |
| 10 nM | 540 nM | > 10 µM | O=C(NO)C1(S(=O)(=O)c2ccc(N3CCC(C(O)c4ccccc4)CC3)cc2)CCOCC1 (stereo not drawn) [Example 827] |  |  |  |  |  |
| 17.6 nM | 110 nM | > 10 µM | O=C(NO)C1(S(=O)(=O)c2ccc(OC3CCC(OCc4ccccc4Cl)C3)cc2)CCOCC1 (stereo not drawn) [Example 688] |  |  |  |  |  |
| 10.6 nM | 43.5 nM | > 10 µM | CCCC(=O)C1CCN(c2ccc(S(=O)(=O)C3(C(=O)NO)CCOCC3)cc2)CC1 [Example 799] |  |  |  |  |  |
| 5.5 nM | 45.4 nM | > 10 µM | O=C(NO)C1(S(=O)(=O)c2ccc(N3CCC(Nc4ccccc4O)CC3)cc2)CCOCC1 [Example 842] |  |  |  |  |  |
| 3 nM | 34.7 nM | > 10 µM | O=C(NO)C1(S(=O)(=O)c2ccc(N3CCN(S(=O)(=O)c4cccs4)CC3)cc2)CCOCC1 [Example 685] |  |  |  |  |  |
| 5 nM | 87.7 nM | > 10 µM | O=C(NO)C1(S(=O)(=O)c2ccc(N3CCC(Oc4ccc(C(F)(F)F)cc4)CC3)cc2)CCOCC1 [Example 567] |  |  |  |  |  |
| 50 nM | 455 nM | > 10 µM | O=C(NO)C1(S(=O)(=O)c2ccc(N3CCCN(S(=O)(=O)c4ccc(OC(F)(F)F)cc4)CC3)cc2)CCOCC1 [Example 699] |  |  |  |  |  |

The next lines start with the compound.

| Compound | IC50 [1, 4] | IC50 [2, 5] | IC50 [3, 6] | IC50 ([1]; read-out: MMP-13 IC50) | IC50 ([2]; read-out: MMP-2 IC50) | IC50 [3] | IC50 ([1]; MMP-13 IC50 (nM)) | IC50 ([2]; MMP-2 IC50 (nM)) |
| --- | --- | --- | --- | --- | --- | --- | --- | --- |
| CC1CCCC(S(=O)(=O)C2CCN(c3ccc(S(=O)(=O)C4(C(=O)NO)CCOCC4)cc3)CC2)C1 (stereo not drawn) [Example 822] | 10 nM | 210 nM | > 10 µM |  |  |  |  |  |
| CCCNC(=O)C1CCN(c2ccc(S(=O)(=O)C3(C(=O)NO)CCOCC3)cc2)CC1 [Example 57] | 80 nM | 2700 nM | > 10 µM |  |  |  |  |  |
| CCCOC1CCN(c2ccc(S(=O)(=O)C3(C(=O)NO)CCOCC3)cc2)CC1 [Example 168] | 50 nM | 285 nM | > 10 µM |  |  |  |  |  |
| CC1CC(C)CN(C(=O)C2CCN(c3ccc(S(=O)(=O)C4(C(=O)NO)CCN(C(=O)CNCC5CC5)CC4)cc3)CC2)C1 (stereo not drawn) [Example 293] | 63.1 nM | > 10000 nM | > 10 µM |  |  |  |  |  |
| O=C(NO)C1(S(=O)(=O)c2ccc(Oc3ccc(SC(F)(F)F)cc3)cc2)CCNCC1 [Example 231, N-Hydroxy-4-[[4-[4-[(trifluoromethyl)thio]phenoxy]phenyl]-sulfonyl]-4-piperidinecarboxamide, Monohydrochloride] | 0.2 nM | 0.1 nM | > 10 µM |  |  |  |  |  |
| O=C(c1ccc(F)cc1)C1CCN(c2ccc(S(=O)(=O)C3(C(=O)NO)CCSCC3)cc2)CC1 [Example 152] |  |  |  | 2 nM | 59 nM | > 10 µM |  |  |
| CCOc1cc(N2CCC(C(=O)NO)(S(=O)(=O)c3ccc(Oc4ccc(OC(F)(F)F)cc4)cc3)CC2)ncn1 [Example 411] | 0.2 nM | < 0.1 nM | > 10 µM |  |  |  |  |  |
| O=C(Nc1c(F)cccc1F)N1CCC(C(=O)NO)(S(=O)(=O)c2ccc(Oc3ccc(OC(F)(F)F)cc3)cc2)CC1 [Example 361] | 0.5 nM | < 0.1 nM | 5 µM |  |  |  |  |  |
| O=C(Nc1cccc(Cl)c1)C1CCN(c2ccc(S(=O)(=O)C3(C(=O)NO)CCOCC3)cc2)CC1 [Example 70] | 10.6 nM | 700 nM | > 10 µM |  |  |  |  |  |
| COc1ccc(C2CCN(c3ccc(S(=O)(=O)C4(C(=O)NO)CCOCC4)cc3)CC2)c(C)c1 [Example 823] |  |  | > 10 µM |  |  |  | 7 nM | 505 nM |
| C#CCN1CCC(C(=O)NO)(S(=O)(=O)c2ccc(Oc3ccc(OC(F)(F)F)cc3)cc2)CC1 [Example 349] | 0.2 nM | < 0.1 nM | 2.6 µM |  |  |  |  |  |
| O=C(Nc1ccc(C(F)(F)F)cc1)N1CCC(C(=O)NO)(S(=O)(=O)c2ccc(Oc3ccc(C(F)(F)F)cc3)cc2)CC1 [Example 141] | 20 nM | 9 nM | > 10 µM |  |  |  |  |  |
| O=C(NO)C1(S(=O)(=O)c2ccc(Oc3ccc(OC(F)(F)F)cc3)cc2)CCN(S(=O)(=O)C(F)(F)F)CC1 [Example 197] | 2.7 nM | < 0.1 nM | > 10 µM |  |  |  |  |  |
| O=C(C1CCN(c2ccc(S(=O)(=O)C3(C(=O)NO)CCOCC3)cc2)CC1)N1CCN(c2ncccc2C(F)(F)F)CC1 [Example 33] |  |  |  | 20 nM | 4500 nM | > 10 µM |  |  |
| O=C(c1ccco1)N1CCC(C(=O)NO)(S(=O)(=O)c2ccc(N3CCC(OCc4ccc(F)c(C(F)(F)F)c4)CC3)cc2)CC1 [Example 433] | 450 nM | 3500 nM | > 10 µM |  |  |  |  |  |
| COCCN1CCC(C(=O)NO)(S(=O)(=O)c2ccc(N3CCC(C(=O)NC4Cc5ccccc5C4)CC3)cc2)CC1 [Example 242, 4-[[4-[4-[[(2,3-Dihydro-1H-inden-2-yl)amino]carbonyl]-1-piperidinyl]phenyl]sulfonyl]-N-hydroxy-1-(2-methoxyethyl)-4-piperidinecarboxamide, Monohydrochloride] | 42.5 nM | 1500 nM | > 10 µM |  |  |  |  |  |
| CCCCOC1CCN(c2ccc(S(=O)(=O)C3(C(=O)NO)CCNCC3)cc2)CC1 [Example 443] | 90 nM | 2200 nM | > 10 µM |  |  |  |  |  |
| O=C(CCc1cnc[nH]1)N1CCC(C(=O)NO)(S(=O)(=O)c2ccc(Oc3ccc(OC(F)(F)F)cc3)cc2)CC1 [Example 350] | 0.1 nM | < 0.1 nM | 6 µM |  |  |  |  |  |
| CCCc1ccc(C(=O)C2CCN(c3ccc(S(=O)(=O)C4(C(=O)NO)CCOCC4)cc3)CC2)cc1 [Example 860] | 2.7 nM | 1500 nM | > 10 µM |  |  |  |  |  |
| COc1ccc(C(=O)C2CCN(c3ccc(S(=O)(=O)C4(C(=O)NO)CCOCC4)cc3)CC2)cc1 [Example 647] | 6 nM | 160 nM | > 10 µM |  |  |  |  |  |
| O=C(c1ccc(OC(F)(F)F)cc1)N1CCC(C(=O)NO)(S(=O)(=O)c2ccc(Oc3ccc(C(F)(F)F)cc3)cc2)CC1 [Example 140] | 11.4 nM | 0.8 nM | > 10 µM |  |  |  |  |  |
